In ChEMBL document CHEMBL3808316, “Design, synthesis and biological evaluation of novel tetrahydroisoquinoline quaternary derivatives as peripheral κ-opioid receptor agonists” (Bioorg Med Chem, 2016):

Assays:
[1] = target: Mu-type opioid receptor (Rattus norvegicus) (UniProt P33535); experiment: Displacement of [3H]diprenorphine from rat mu opioid receptor expressed in CHO cell membranes at 10^-5 M after 30 mins by liquid scintillation counting analysis
[2] = target: Mu-type opioid receptor (Rattus norvegicus) (UniProt P33535); experiment: Displacement of [3H]diprenorphine from rat mu opioid receptor expressed in CHO cell membranes at 10^-6 M after 30 mins by liquid scintillation counting analysis
[3] = target: T1, Kappa-type opioid receptor (Homo sapiens, UniProt P41145); experiment: Displacement of [3H]diprenorphine from human kappa opioid receptor expressed in CHO cell membranes at 10^-5 M after 30 mins by liquid scintillation counting analysis
T1 sequence (P41145 whole entry): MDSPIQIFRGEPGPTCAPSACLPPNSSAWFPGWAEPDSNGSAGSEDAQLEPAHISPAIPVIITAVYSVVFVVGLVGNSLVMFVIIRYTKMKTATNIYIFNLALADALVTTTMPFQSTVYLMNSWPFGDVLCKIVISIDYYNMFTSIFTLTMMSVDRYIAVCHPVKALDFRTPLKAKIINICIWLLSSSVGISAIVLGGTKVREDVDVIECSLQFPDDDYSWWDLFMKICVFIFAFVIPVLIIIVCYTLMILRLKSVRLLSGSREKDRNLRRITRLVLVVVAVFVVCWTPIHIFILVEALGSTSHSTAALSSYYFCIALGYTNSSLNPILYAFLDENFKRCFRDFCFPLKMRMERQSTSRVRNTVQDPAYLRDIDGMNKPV

[4] = target: T1, Kappa-type opioid receptor; experiment: Displacement of [3H]diprenorphine from human kappa opioid receptor expressed in CHO cell membranes at 10^-6 M after 30 mins by liquid scintillation counting analysis
[5] = target: T1, Kappa-type opioid receptor; experiment: Displacement of [3H]diprenorphine from human kappa opioid receptor expressed in CHO cell membranes after 30 mins by liquid scintillation counting analysis
[6] = test system: Mus musculus; experiment: Sedative activity in sc dosed Kunming mouse assessed as crossing number at 25 ug/kg after 45 mins by open field test (reference value: 155 +/- 34); assay type: ADME, organism-based; conditions: in vivo, 0.025 mg/kg, 0.75 h
[7] = Selectivity ratio of Ki for rat mu opioid receptor to Ki for human kappa opioid receptor
[8] = test system: Mus musculus; experiment: Antinociceptive activity in ip dosed mouse assessed as acetic acid induced writhing administered 30 mins prior to acetic acid challenge measured for 20 mins; assay type: functional
[9] = test system: Mus musculus; experiment: Sedative activity in sc dosed Kunming mouse assessed as […] after 20 mins by rotation test; assay type: ADME, organism-based; conditions: in vivo
[10] = test system: Mus musculus; experiment: Peripheral restriction index, ratio of sedative ED50 in sc dosed Kunming mouse to antinociceptive ED50 in ip dosed mouse
[11] = test system: Mus musculus; experiment: Sedative activity in sc dosed Kunming mouse assessed as center square duration time at 25 ug/kg after 45 mins by open field test (reference value: 13.2 +/- 3.1 secs); assay type: ADME, organism-based; conditions: in vivo, 0.025 mg/kg, 0.75 h
[12] = test system: Mus musculus; experiment: Sedative activity in sc dosed Kunming mouse assessed as center square duration distance at 25 ug/kg after 45 mins by open field test (reference value: 1.77 +/- 0.81 m); assay type: ADME, organism-based; conditions: in vivo, 0.025 mg/kg, 0.75 h
[13] = test system: Mus musculus; experiment: Sedative activity in sc dosed Kunming mouse assessed as crossing number at 50 ug/kg after 45 mins by open field test (reference value: 155 +/- 34); assay type: ADME, organism-based; conditions: in vivo, 0.05 mg/kg, 0.75 h
[14] = test system: Mus musculus; experiment: Sedative activity in sc dosed Kunming mouse assessed as crossing number at 100 ug/kg after 45 mins by open field test (reference value: 155 +/- 34); assay type: ADME, organism-based; conditions: in vivo, 0.1 mg/kg, 0.75 h
[15] = test system: Mus musculus; experiment: Sedative activity in sc dosed Kunming mouse assessed as crossing number at 200 ug/kg after 45 mins by open field test (reference value: 155 +/- 34); assay type: ADME, organism-based; conditions: in vivo, 0.2 mg/kg, 0.75 h
[16] = test system: Mus musculus; experiment: Potency index, ratio of antinociceptive ED50 for U50488H to antinociceptive ED50 for test compound in ip dosed mouse after 20 mins; assay type: functional
[17] = test system: Mus musculus; experiment: Sedative activity in sc dosed Kunming mouse assessed as center square duration time at 50 ug/kg after 45 mins by open field test (reference value: 13.2 +/- 3.1 secs); assay type: ADME, organism-based; conditions: in vivo, 0.05 mg/kg, 0.75 h
[18] = test system: Mus musculus; experiment: Sedative activity in sc dosed Kunming mouse assessed as center square duration time at 100 ug/kg after 45 mins by open field test (reference value: 13.2 +/- 3.1 secs); assay type: ADME, organism-based; conditions: in vivo, 0.1 mg/kg, 0.75 h
[19] = test system: Mus musculus; experiment: Sedative activity in sc dosed Kunming mouse assessed as center square duration time at 200 ug/kg after 45 mins by open field test (reference value: 13.2 +/- 3.1 secs); assay type: ADME, organism-based; conditions: in vivo, 0.2 mg/kg, 0.75 h
[20] = test system: Mus musculus; experiment: Sedative activity in sc dosed Kunming mouse assessed as center square duration distance at 50 ug/kg after 45 mins by open field test (reference value: 1.77 +/- 0.81 m); assay type: ADME, organism-based; conditions: in vivo, 0.05 mg/kg, 0.75 h
[21] = test system: Mus musculus; experiment: Sedative activity in sc dosed Kunming mouse assessed as center square duration distance at 100 ug/kg after 45 mins by open field test (reference value: 1.77 +/- 0.81 m); assay type: ADME, organism-based; conditions: in vivo, 0.1 mg/kg, 0.75 h
[22] = test system: Mus musculus; experiment: Sedative activity in sc dosed Kunming mouse assessed as center square duration distance at 200 ug/kg after 45 mins by open field test (reference value: 1.77 +/- 0.81 m); assay type: ADME, organism-based; conditions: in vivo, 0.2 mg/kg, 0.75 h

Sequence of Mu-type opioid receptor (Rattus norvegicus) (P33535 whole entry): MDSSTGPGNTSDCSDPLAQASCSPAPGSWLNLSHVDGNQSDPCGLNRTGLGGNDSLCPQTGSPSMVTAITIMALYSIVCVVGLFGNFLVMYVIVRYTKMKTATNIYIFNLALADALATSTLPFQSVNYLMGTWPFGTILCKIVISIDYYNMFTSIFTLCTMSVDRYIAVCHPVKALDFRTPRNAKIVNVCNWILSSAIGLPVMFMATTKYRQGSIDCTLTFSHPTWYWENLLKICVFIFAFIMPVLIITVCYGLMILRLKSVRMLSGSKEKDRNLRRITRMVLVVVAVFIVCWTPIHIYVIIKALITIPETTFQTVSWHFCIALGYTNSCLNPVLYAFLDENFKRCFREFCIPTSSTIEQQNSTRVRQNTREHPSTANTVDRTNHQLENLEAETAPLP

Structure (SMILES)	inhibition [1]	inhibition [2]	inhibition [3]	inhibition [4]	Ki [5]	other results
C[N+]1(CC2c3ccccc3CCN2C(=O)C2CC(=O)c3ccc(Cl)cc32)CCCC1 (stereo not drawn)	0%	0%	83.7%	10.8%	> 10000 nM	–
COc1ccc(C[N+]2(CC3c4ccccc4CCN3C(=O)C3CC(=O)c4ccc(Cl)cc43)CCCC2)cc1 (stereo not drawn)	9.8%	0%	83%	3.9%	–	–
O=C1CC(C(=O)N2CCc3ccccc3C2CN2CCCC2)c2cc(Cl)ccc21 (stereo not drawn)	–	–	–	–	0.033 nM	Activity [6]: 71; Ratio Ki [7]: 21.1; ED50 [8]: 0.000406 mg/kg; ED50 [9]: 0.000568 mg/kg; Ratio ED50 [10]: 1.4; Time [11]: 27.1 s; Activity [12]: 1.21 m
O=C1CC(C(=O)N2CCc3ccccc3C2C[N+]2(Cc3ccc(Cl)cc3Cl)CCCC2)c2cc(Cl)ccc21 (stereo not drawn)	10.4%	0%	31.9%	12.1%	–	–
O=C1CC(C(=O)N2CCc3ccccc3C2C[N+]2(Cc3ccc(Cl)cc3)CCCC2)c2cc(Cl)ccc21 (stereo not drawn)	10%	0%	89.3%	31.3%	–	–
CC[N+]1(CC2c3ccccc3CCN2C(=O)C2CC(=O)c3ccc(Cl)cc32)CCCC1 (stereo not drawn)	0%	0%	89.1%	31.9%	–	–
CCCC[N+]1(CC2c3ccccc3CCN2C(=O)C2CC(=O)c3ccc(Cl)cc32)CCCC1.[I-] (stereo not drawn)	62.4%	28.8%	100%	100%	0.94 nM	Activity [13]: 153; Activity [14]: 138; Activity [15]: 91; Ratio ED50 [16]: 40; ED50 [8]: 0.022 mg/kg; ED50 [9]: 0.24 mg/kg; Ratio ED50 [10]: 10.2; Time [17]: 17.4 s; Time [18]: 19.1 s; Time [19]: 27.4 s; Activity [20]: 1.02 m; Activity [21]: 1.92 m; Activity [22]: 1.93 m
O=C1CC(C(=O)N2CCc3ccccc3C2C[N+]2(Cc3ccc(F)cc3)CCCC2)c2cc(Cl)ccc21 (stereo not drawn)	0%	0%	13.1%	0%	–	–
C=CC[N+]1(CC2c3ccccc3CCN2C(=O)C2CC(=O)c3ccc(Cl)cc32)CCCC1 (stereo not drawn)	56.5%	37.4%	100%	100%	1.86 nM	–
C[N+]1(CC2c3cc(F)ccc3CCN2C(=O)C2CC(=O)c3ccc(Cl)cc32)CCCC1 (stereo not drawn)	26.5%	8.9%	97.4%	86%	138 nM	–
O=C1CC(C(=O)N2CCc3ccccc3C2C[N+]2(Cc3ccccc3)CCCC2)c2cc(Cl)ccc21 (stereo not drawn)	0%	0%	86%	43.1%	–	–
O=C1CC(C(=O)N2CCc3ccccc3C2C[N+]2(CC3CC3)CCCC2)c2cc(Cl)ccc21 (stereo not drawn)	48%	29.2%	100%	98.8%	3.56 nM	–
COc1ccc2c(c1)CCN(C(=O)C1CC(=O)c3ccc(Cl)cc31)C2C[N+]1(C)CCCC1 (stereo not drawn)	9.8%	4%	85.5%	50%	–	–
C[N+]1(CC2c3ccc(O)cc3CCN2C(=O)C2CC(=O)c3ccc(Cl)cc32)CCCC1 (stereo not drawn)	34.5%	8.2%	87.7%	67.3%	231 nM	–
COc1ccc2c(c1)C(C[N+]1(C)CCCC1)N(C(=O)C1CC(=O)c3ccc(Cl)cc31)CC2 (stereo not drawn)	0%	0%	8.6%	0%	–	–
